Assay results taken from US12060355B2, “Compounds for use in the treatment of fascioliasis” (Merck Patent GmbH, priority 2018, dated 2024).
Where two headings read alike, the source gives them in different places.

How the values were obtained:
human MRC-5 cell line = assay: Cytotoxicity against human MRC-5 cell line; type: cell-based
Experimental: (§1) The routine biological assays using adult or juvenile S. mansoni worms and cytotoxicity assays using MRC-5 cells have been disclosed previously in Mansour, N. R., et al. (2016). “High Throughput Screening Identifies Novel Lead Compounds with Activity against Larval, Juvenile and Schistosoma mansoni PLoS Negl Trop Dis 10(4): e0004659. Cytotoxicity assays using the HepG2 cell line were carried out as described in Molecular Diversity (2015) 19, 251-261. • (a) F. hepatica adult fluke motility score tested at 5 μM. Motility is scored as per the table below: • Good movement Score 1 • (Curled, sticking on wall, movement on petri plate or conical flask) • Moderate movement Score 2 • (Less vigor but more than 10 seconds pulses or peristaltic waves) • Resting Score 3 • (Less than 10 second pulses in head and body) • Apathetic Score 4 • (Head and body with less than 2 second pulses) • Faint movement of suckers Score 5 • (Movement of oral or ventral suckers only, whole body paralyzed) • Inert Score 6 • (No movement at all or dead) • (b) S. mansoni adult worms • (c) S. mansoni juvenile worms • (d) S. haemotobium adult worms • (e) Cytotoxicity against human MRC-5 cell line • (f) Cytotoxicity against human HepG2 cell lines

[1] = test system: S. mansoni juvenile worms; assay: S. mansoni juvenile worm assay, in vitro; type: cell-based; settings: Schistosoma mansoni, read-out: S. mansoni Juvenile
Experimental: as §1

human HepG2 cell lines = type: cell-based; settings: human HepG2 cell line
F. hepatica adult fluke = F. hepatica adult fluke motility score, in vitro; type: cell-based, Fasciola hepatica; set-up: key: Good movement Score 1 • (Curled, sticking on wall, movement on petri plate or conical flask); Moderate movement Score 2 • (Less vigor but more than 10 seconds pulses or peristaltic waves); Resting Score 3 • (Less than 10 second pulses in head and body); Apathetic Score 4 • (Head and body with less than 2 second pulses); Faint movement of suckers Score 5 • (Movement of oral or ventral suckers only, whole body paralyzed); Inert Score 6 • (No movement at all or dead); settings: for F. hepatica motility score after 24 h / F. hepatica motility score after 48 h / F. hepatica motility score after 72 h: adult fluke
Description: The routine biological assays using adult liver fluke are described in Alessandra Crusco, Cinzia Bordoni, Anand Chakroborty, Kezia C. L. Whatley, Helen Whiteland, Andrew D. Westwell, Karl F. Hoffmann, “Design, synthesis and anthelmintic activity of 7-keto-sempervirol analogues”, European Journal of Medicinal Chemistry, Volume 152, 2018, Pages 87-100.
The routine biological assays using adult or juvenile S. mansoni worms and cytotoxicity assays using MRC-5 cells have been disclosed previously in Mansour, N. R., et al. (2016). “High Throughput Screening Identifies Novel Lead Compounds with Activity against Larval, Juvenile and Schistosoma mansoni PLoS Negl Trop Dis 10(4): e0004659. […] Motility is scored as per the table below: • Good movement Score 1 • (Curled, sticking on wall, movement on petri plate or conical flask) • Moderate movement Score 2 • (Less vigor but more than 10 seconds pulses or peristaltic waves) • Resting Score 3 • (Less than 10 second pulses in head and body) • Apathetic Score 4 • (Head and body with less than 2 second pulses) • Faint movement of suckers Score 5 • (Movement of oral or ventral suckers only, whole body paralyzed) • Inert Score 6 • (No movement at all or dead) • (b) S. mansoni adult worms • (c) S. mansoni juvenile worms • (d) S. haemotobium adult worms • (e) Cytotoxicity against human MRC-5 cell line • (f) Cytotoxicity against human HepG2 cell lines

[2] = 5 μM, score 1 (good movement) to 6 (inert)

Cc1nc2cnc(-c3cccc(C(F)(F)F)c3)cn2c1-c1ccc(O)cc1F [Example 6, 3-fluoro-4-[2-methyl-6-[3-(trifluoromethyl)phenyl]imidazo[1,2-a]pyrazin-3-yl]phenol]
Cytotox MRC-5 (human MRC-5 cell line): 15.8 µM

COc1ccc(-c2c(C(C)C)nc3cnc(-c4cccc(C(F)(F)F)c4)cn23)cc1OP(=O)(O)O [Example 28, 2-methoxy-5-[2-(propan-2-yl)-6-[3-(trifluoromethyl)phenyl]imidazo[1,2-a]pyrazin-3-yl]phenoxyphosphonic acid]
IC50 [1]: 183 nM
Cytotox HepG2 (human HepG2 cell lines): 19.2 µM

Cc1nc2cnc(-c3ccc(F)c(C(F)(F)F)c3)cn2c1-c1c(F)cc(OP(=O)(O)O)cc1F [Example 41, 3,5-difluoro-4-{6-[4-fluoro-3-(trifluoromethyl)phenyl]-2-methyl-imidazo[1,2-a]pyrazin-3-yl}phenoxyphosphonic acid]
IC50 [1]: 100 nM
Cytotox HepG2 (human HepG2 cell lines): 6.8 µM

CC(C)c1nn2cnc(-c3ccc(F)c(C(F)(F)F)c3)cc2c1-c1c(F)cc(O)cc1F [Example 47, 3,5-difluoro-4-(5-(4-fluoro-3-(trifluoromethyl)phenyl)-2-isopropylpyrazolo[1,5-c]pyrimidin-3-yl)phenol]
F. hepatica motility score after 24 h (F. hepatica adult fluke; [2]): (6, 6, 6) at 5 μM
F. hepatica motility score after 48 h (F. hepatica adult fluke; 5 μM, score 1 to 6 (inert)): (6, 6, 6) at 5 μM
F. hepatica motility score after 72 h (F. hepatica adult fluke; 5 μM, score 1 to 6 (inert)): (6, 6, 6) at 5 μM
Cytotox HepG2 (human HepG2 cell lines): 8.9 µM

Fc1ccc(-c2cn3c(-c4ccc5[nH]ncc5c4F)c(C(F)(F)F)nc3cn2)cc1C(F)(F)F [Example 50, 3-(4-Fluoro-1H-indazol-5-yl)-6-(4-fluoro-3-trifluoromethylphenyl)-2-trifluoromethyl-imidazo[1,2-a]pyrazine]
Mean motility score of F hepatica at 24 h (F. hepatica adult fluke; 0.04 μM): 1, 1, 1
Mean motility score of F hepatica at 48 h (F. hepatica adult fluke; 0.04 μM): 1, 1, 1
Mean motility score of F hepatica at 72 h (F. hepatica adult fluke; 0.04 μM): 1, 1, 1
Mean motility score of F hepatica at 24 h (F. hepatica adult fluke; 0.2 μM): 2
Mean motility score of F hepatica at 48 h (F. hepatica adult fluke; 0.2 μM): 2
Mean motility score of F hepatica at 72 h (F. hepatica adult fluke; 0.2 μM): 2.5
Mean motility score of F hepatica at 24 h (F. hepatica adult fluke; 1 μM): 6, 6, 6
Mean motility score of F hepatica at 48 h (F. hepatica adult fluke; 1 μM): 6, 6, 6
Mean motility score of F hepatica at 72 h (F. hepatica adult fluke; 1 μM): 6, 6, 6
Mean motility score of F hepatica at 24 h (F. hepatica adult fluke; 5 μM): 6, 6, 6
Mean motility score of F hepatica at 48 h (F. hepatica adult fluke; 5 μM): 6, 6, 6
Mean motility score of F hepatica at 72 h (F. hepatica adult fluke; 5 μM): 6, 6, 6
F. hepatica motility score after 24 h (F. hepatica adult fluke; [2]): (6, 6, 6) at 5 μM
F. hepatica motility score after 48 h (F. hepatica adult fluke; 5 μM, score 1 to 6 (inert)): (6, 6, 6) at 5 μM
F. hepatica motility score after 72 h (F. hepatica adult fluke; 5 μM, score 1 to 6 (inert)): (6, 6, 6) at 5 μM

Cc1n[nH]c2ccc(-c3c(C(C)C)nc4cnc(-c5cccc(C(F)(F)F)c5)cn34)cc12 [Example 51, 2-Isopropyl-3-(3-methyl-1H-indazol-5-yl)-6-(3-trifluoromethyl-phenyl)-imidazo[1,2-a]pyrazine]
IC50 ([1]; juvenile worms in vitro, IC50): 830 nM
Cytotox HepG2 (human HepG2 cell lines): 10.3 µM

O=P(O)(O)Oc1cc(F)c(-c2c(C3CC3)nc3cnc(-c4ccc(F)c(C(F)(F)F)c4)cn23)c(F)c1 [Example 62, Phosphoric acid mono-{4-[2-cyclopropyl-6-(4-fluoro-3-trifluoromethyl-phenyl)-imidazo[1,2-a]pyrazin-3-yl]-3,5-difluoro-phenyl} ester]
IC50 [1]: 3.7 nM
Cytotox HepG2 (human HepG2 cell lines): 14.8 µM

CC(C)Oc1cc(-c2cn3c(-c4ccc5[nH]ncc5c4F)c(C(F)(F)F)nc3cn2)ccc1F [Example 81, 3-(4-Fluoro-1H-indazol-5-yl)-6-(4-fluoro-3-isopropoxy-phenyl)-2-trifluoromethyl-imidazo[1,2-a]pyrazine]
Cytotox HepG2 (human HepG2 cell lines): 9.2 µM

Fc1ccc(-c2cn3c(-c4ccc5[nH]ncc5c4F)c(C(F)(F)F)nc3cn2)cc1C1CCC1 [Example 82, 6-(3-Cyclobutyl-4-fluoro-phenyl)-3-(4-fluoro-1H-indazol-5-yl)-2-trifluoromethyl-imidazo[1,2-a]pyrazine]
Cytotox HepG2 (human HepG2 cell lines): 6.1 µM

CC(C)c1cc(-c2cn3c(-c4ccc5[nH]ncc5c4Cl)c(C(F)(F)F)nc3cn2)ccc1F [Example 83, 3-(4-Chloro-1H-indazol-5-yl)-6-(4-fluoro-3-isopropyl-phenyl)-2-trifluoromethyl-imidazo[1,2-a]pyrazine]
Cytotox HepG2 (human HepG2 cell lines): 6.6 µM

Fc1ccc(-c2cn3c(-c4ccc5[nH]ncc5c4F)c(C(F)(F)F)nc3cn2)cc1C1CC1 [Example 84, 6-(3-Cyclopropyl-4-fluoro-phenyl)-3-(4-fluoro-1H-indazol-5-yl)-2-trifluoromethyl-imidazo[1,2-a]pyrazine]
Cytotox HepG2 (human HepG2 cell lines): 10.5 µM

CC(C)Oc1cccc(-c2cn3c(-c4ccc5[nH]ncc5c4F)c(C(F)(F)F)nc3cn2)c1 [Example 86, 3-(4-Fluoro-1H-indazol-5-yl)-6-(3-isopropoxy-phenyl)-2-trifluoromethyl-imidazo[1,2-a]pyrazine]
Cytotox HepG2 (human HepG2 cell lines): 13.2 µM

CC(C)c1cc(-c2cn3c(-c4ccc5[nH]ncc5c4F)c(C(F)(F)F)nc3cn2)ccn1 [Example 87, 3-(4-Fluoro-1H-indazol-5-yl)-6-(2-isopropyl-pyridin-4-yl)-2-trifluoromethyl-imidazo[1,2-a]pyrazine]
Cytotox HepG2 (human HepG2 cell lines): 9.5 µM

Fc1c(-c2c(C(F)(F)F)nc3cnc(-c4ccnc(C(F)(F)F)c4)cn23)ccc2[nH]ncc12 [Example 88, 3-(4-Fluoro-1H-indazol-5-yl)-2-trifluoromethyl-6-(2-trifluoromethyl-pyridin-4-yl)-imidazo[1,2-a]pyrazine]
Cytotox HepG2 (human HepG2 cell lines): 7.0 µM

CC(C)c1nc2cnc(-c3ccc(F)c(C(F)(F)F)c3)nc2n1-c1c(F)cc(O)cc1F [Example 89, 3,5-Difluoro-4-[2-(4-fluoro-3-trifluoromethyl-phenyl)-8-isopropyl-purin-9-yl]-phenol]
F. hepatica motility score after 24 h (F. hepatica adult fluke; [2]): (6, 6, 6)
F. hepatica motility score after 48 h (F. hepatica adult fluke; 5 μM, score 1 to 6 (inert)): (6, 6, 6)
F. hepatica motility score after 72 h (F. hepatica adult fluke; 5 μM, score 1 to 6 (inert)): (6, 6, 6)
Cytotox HepG2 (human HepG2 cell lines): 4.8 µM

CC(C)c1nc2cnc(-c3cccc(C(F)(F)F)c3)nc2n1-c1ccc(O)cc1F [Example 90, 3-fluoro-4-[8-(propan-2-yl)-2-[3-(trifluoromethyl)phenyl]-9H-purin-9-yl]phenol]
Cytotox HepG2 (human HepG2 cell lines): 9.3 µM

COc1ccc(-c2c(C)nc3ccc(-c4cccc(C(F)(F)F)c4)cn23)cc1O [Example 91, 2-methoxy-5-[2-methyl-6-[3-(trifluoromethyl)phenyl]imidazo[1,2-a]pyridin-3-yl]phenol]
IC50 ([1]; juvenile worms in vitro, IC50): 530 nM

COc1ccc(-c2c(C(C)C)nc3ccc(-c4cccc(C(F)(F)F)c4)cn23)cc1O [Example 92, 2-methoxy-5-[2-isopropyl-6-[3-(trifluoromethyl)phenyl]imidazo[1,2-a]pyridin-3-yl]phenol]
IC50 ([1]; juvenile worms in vitro, IC50): 360 nM

Cc1nc2ccc(-c3cccc(C(F)(F)F)c3)cn2c1-c1ccc(O)cc1F [Example 93, 3-fluoro-4-[2-methyl-6-[3-(trifluoromethyl)phenyl]imidazo[1,2-a]pyridin-3-yl]phenol]
IC50 ([1]; juvenile worms in vitro, IC50): 830 nM

CC(C)c1nc2ccc(-c3cccc(C(F)(F)F)c3)cn2c1-c1ccc(O)cc1F [Example 94, 3-fluoro-4-[2-isopropyl-6-[3-(trifluoromethyl)phenyl]imidazo[1,2-a]pyridin-3-yl]phenol]
F. hepatica motility score after 24 h (F. hepatica adult fluke; [2]): (6, 6, 6)
F. hepatica motility score after 48 h (F. hepatica adult fluke; 5 μM, score 1 to 6 (inert)): (6, 6, 6)
F. hepatica motility score after 72 h (F. hepatica adult fluke; 5 μM, score 1 to 6 (inert)): (6, 6, 6)
IC50 ([1]; juvenile worms in vitro, IC50): 250 nM
Cytotox HepG2 (human HepG2 cell lines): 10.6 µM

CSc1nc2cc(Cl)c(Oc3cccc(Cl)c3Cl)cc2[nH]1 [Triclabendazole, reference compound]
Mean motility score of F hepatica at 24 h (F. hepatica adult fluke; 40 μM): 2
Mean motility score of F hepatica at 48 h (F. hepatica adult fluke; 40 μM): 3.5
Mean motility score of F hepatica at 72 h (F. hepatica adult fluke; 40 μM): 6
F. hepatica motility score after 24 h (F. hepatica adult fluke; 40 μM, score 1 to 6 (inert)): 3
F. hepatica motility score after 48 h (F. hepatica adult fluke; 40 μM, score 1 to 6 (inert)): 6
F. hepatica motility score after 72 h (F. hepatica adult fluke; 40 μM, score 1 to 6 (inert)): 6
